# Publication PMC11783601, “Analogue-Sensitive Inhibition of Histone Demethylases Uncovers Member-Specific Function in Ribosomal Protein Synthesis” (Journal of the American Chemical Society, 2025)
# Columns and labels:
# endogenous 2OG enzymes = test: Effect of 6A/B on post-translational/post-synthetic modifications in HEK293T cells (Western blot, dot blot); type: cell-based, human
# Method: To test the orthogonality of NOL toward wild type KDM4A, HEK293T cells, either nontransfected or transfected with KDM4A, were individually treated with DMSO, 400 μM 6A or 10 μM n-octyl IOX1, a nonspecific inhibitor of 2OG enzymes. […] To further probe for off-target effects of 6 on endogenous 2OG enzymes, HEK293T cells were cultured with DMSO or 400 μM 6A and examined for several postsynthetic modifications catalyzed by these dioxygenases. Key trimethylated lysine marks on extracted histone were analyzed by Western blot using corresponding antibodies (Figure S31). […] Similarly, no change in prolyl hydroxylation was detected when cellular extracts were subjected to the pan hydroxyproline antibody. […]
# washed with TBST 3 times, 5 minutes each and incubated with methylene blue solution (Sigma 03978) for loading determination.
# 15. Determining the effect of 6A/B on post-translational modifications in HEK293T cells To determine the effects of 6B on 5hmC and 5mC levels, and correspondingly any proteins responsible for addition or removal of these motifs, HEK293-T cells (ATCC CRL-1573) were plated into 6-well tissue culture plates (Corning) in DMEM (Corning) supplemented with 10% FBS (Corning) and 1X Antibiotic/Antimycin (Penicillin/Streptomycin/Fungiozone) (Cytiva HyClone) in an incubator held at 37 °C with 5% CO2. At 75% confluency, cells were treated with 200µM 6B or equivalent volume of DMSO and left to incubate at 37 °C. 24 hours later, the media was aspirated, washed with 1X PBS (Corning) and uplifted via trypsinization (Gibco TrypLE™ Express Enzyme). Cells were centrifuged at 3000xg for 3 minutes, washed with 1X PBS and centrifuged again at 3000xg for 3 minutes.
# To study the effect on genomic DNA, genomic DNA was extracted with Fisher GeneJET gemoic DNA Purification Kit (Fisher K0721) following manufactures protocol. 1000ng of gDNA, as measured via nanodrop, was then subject to Dot Blot experiment. Briefly, 20µL of 1000ng gDNA was added to 40µL of 2M NaOH-50mM EDTA solution for 3 minutes at room temperature. 140µL of 10mM Tris/1mM EDTA pH 8.0 (TE) buffer was added and heated at 95 °C for 10 minutes.
# Aliquots were then transferred directly to ice and 200µL of 2M Ammonium Acetate was added and left on ice for 5 minutes. Meanwhile, PVDF Imoblinin P (Merck Millipore Ltd.) membrane was cut to size, activated with MeOH for 30 seconds and incubated in TE buffer for 5 minutes while shaking. The membrane was then placed on a 96-well Bio-Dot microfiltration apparatus (Bio-Rad), washed with 400µL of TE buffer and the gDNA solution was applied and vacuum filtered. 400µL of TE buffer was then used to wash the membrane post gDNA binding. The membrane was then dried at 37 °C for 30 minutes followed by blocking in 5% milk concentrate (Bio-Rad) TBST solution for 1 hour at room temperature. Primary antibody 5-mC (Abcam […]
# was applied and left to rotate overnight at 4 °C. The following day, the blots were washed 3 times, 5 minutes each with TBST and secondary antibody of goat-anti Rabbit antibody (CST 7074) in 5% milk/TBST at 1-10000 dilution was added for 1 hour at room temperature while shaking. The […]
# To study the effect of histone methyl motifs (H3K4me3, H3K9me3, H3K27me3, H3K36me3, H3K79me3) and hydroxyproline motif, cell pellets were lysed with RIPA buffer with EDTA (Fisher J61529) supplemented with 1X protease inhibitor tablet (Roche). […] The protein concentration was determined using Bradford assay kit (BioRad Laboratories) with BSA as a […]
# PHD2 (EGLN1) = biological target: T1, PHD2 (EGLN1) (Homo sapiens, UniProt Q9GZT9); test: MALDI-based assay EGLN1 prolyl hydroxylation of peptide; type: biochemical; conditions: MALDI-TOF, peptide substrate
# T1 construct: Full length EGLN1 construct plasmid with; TEV-His (N); host or cells: E. coli BL21 (DE3)
# T1 sequence (Q9GZT9 whole entry): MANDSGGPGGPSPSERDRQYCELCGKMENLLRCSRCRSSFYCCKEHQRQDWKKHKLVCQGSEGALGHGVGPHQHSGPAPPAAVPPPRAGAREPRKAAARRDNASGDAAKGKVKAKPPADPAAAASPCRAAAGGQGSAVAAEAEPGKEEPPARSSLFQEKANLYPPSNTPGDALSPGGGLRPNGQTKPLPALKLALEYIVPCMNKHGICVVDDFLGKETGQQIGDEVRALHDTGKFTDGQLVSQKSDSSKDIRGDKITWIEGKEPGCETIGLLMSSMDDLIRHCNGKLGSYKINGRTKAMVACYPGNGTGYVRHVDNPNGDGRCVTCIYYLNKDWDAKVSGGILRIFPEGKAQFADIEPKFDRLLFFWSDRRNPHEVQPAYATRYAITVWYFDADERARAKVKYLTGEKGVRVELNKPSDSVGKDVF
# Method: demethylation events on the peptide. The percent peak area was calculated, and the K27me2, me1,
# and me0 peaks were summed to get the relative percent demethylated peptide.
# MALDI-based assay for FTO and ALKBH5: To determine the enzymatic activity of FTO and
# ALKBH5 recombinant proteins in the presence of L-Leu NOG 6, a previously published methods
# were utilized.15, 18 Briefly,10 µM of each protein was incubated in the presence of 10 µM RNA
# 7.5, 150 mM KCl, 50 µM L-Leu NOG or equivalent volume of water in 10 µL aliquots. The
# samples were placed on ice for 10 minutes followed by addition of 200 µM 2OG or equivalent
# volume of water. After incubation at 37 °C for 30 minutes, samples were desalted with 3 µL of BT
# spotted on a MALDI plate with 1uL sample and 1uL of 3-HPA matrix and monitored with Bruker
# FlexControl in the reflectron negative mode and analyzed on Bruker FlexAnalysis software.
# Relative inhibition was monitored via assessing percent product decrease with L-Leu NOG
# MALDI-based assay for C14orf169 (NO66) and MINA: To monitor the enzymatic activity of […]
# 1 µL S-DHB matrix were spotted on a MALDI plate and monitored with Bruker FlexControl in
# the reflectron positive mode and analyzed on Bruker FlexAnalysis software. […]
# was monitored via assessing percent product decrease with L-Leu NOG samples compared to no […]
# monitored following a reported method.19 To monitor the enzymatic activity of EGLN1 and 3 […]
SMILES,"prolyl hydroxylation (pan hydroxyproline antibody) (endogenous 2OG enzymes; HEK293T cells, 400 μM 6A)","trimethylated K4, K9, K27, and K36 levels in histone H3 (endogenous 2OG enzymes; HEK293T cells, 400 μM 6A, Western blot)","5mC, 5hmC, and m6A modifications on DNA and RNA (endogenous 2OG enzymes; HEK293T cells, dot blot assays)","5mC and 5hmC marks on genomic DNA (endogenous 2OG enzymes; HEK293T cells, dot-blot assay)","dimethyllysine, trimethyllysine and hydroxyproline marks on cellular proteins (endogenous 2OG enzymes; HEK293T cellular extracts, pan antibodies, Western blot)",inhibition of PHD2 (PHD2 (EGLN1))
"CCCCCCCCOC(=O)C(=O)NC(CC(C)C)C(=O)O [6A, L-Leu octyl-ester NOG]",no change,No change,no effect,no inhibitory effect,no inhibitory effect,
"CC(C)CC(NC(=O)C(=O)O)C(=O)O (stereo not drawn) [compound 6, N-oxalyl leucine]",,,,,,No inhibition
